Measured values from publication PMC12446476 (Nature Communications, 2025).

Columns and labels:
[1] = test system: N. gonorrhoeae; test: N. gonorrhoeae murine vaginal infection model, efficacy; assay type: in vivo, mouse
Protocol: The N. gonorrhoeae female mouse vaginal model[45] was performed in accordance with the Guide for Care and Use of Laboratory Animals[75]. Animal rooms were maintained at a temperature range of 20–24 °C and humidity between 30% and 70%, with 12 h light/dark cycles. Ovariectomized BALB/c female mice (5–6 weeks, BioLASCO Taiwan Co., Ltd.) were treated with estradiol (0.23 mg/mouse) two days before infection and on the day of infection. Ovariectomized mice were used to avoid staging mice before treating them with estradiol. Beginning two days prior to infection and maintained until the end of the study, animals were treated twice daily with streptomycin (1.2 mg/mouse) and vancomycin (0.6 mg/mouse) each via intraperitoneal (IP) injection and received trimethoprim sulfate in the drinking water (0.4 mg/mL) to control vaginal microflora. Animals were anesthetised with pentobarbital (80 mg/kg), the vagina was rinsed with 50 mM HEPES (pH 7.4), and then inoculated with N. gonorrhoeae in pre-warmed PBS (0.02 mL/mouse containing ~1 × 10^5 CFU).
Control groups received either a single IP injection of ceftriaxone or 5% dextrose (vehicle) twice daily. Animals were sacrificed via CO2 asphyxiation at either 2 h (baseline), 26 and/or 50 h post-infection. Vaginal lavage was performed twice with 200 µL GC broth containing 0.05% saponin to recover bacteria. Bacterial burden in the lavage fluids was determined by performing 10-fold serial dilutions and plating on chocolate agar plates. Four strains were assessed using the model; ATCC 700825 is naturally streptomycin-resistant, whereas AR Bank0179-15, AR Bank0181-17 and WHO X-07 are derivatives of AR Bank0179, AR Bank0181 and WHO X, respectively, that were engineered for streptomycin resistance for use in the model.

[2] = test system: S. aureus ATCC 29213; test: S. aureus neutropenic murine thigh infection model; assay type: in vivo, mouse; conditions: for reduction in thighs: dosed as Debio 1453 P; for Mean Diff. 0h vs. treatment, log10 CFU: S. aureus ATCC 29213, daily dose
Protocol: The S. aureus neutropenic murine thigh infection model was performed in accordance with the Guide for Care and Use of Laboratory Animals[75]. Animal rooms were maintained at a temperature range of 20–24 °C and humidity between 30% and 70%, with 12 h light/dark cycles. Female ICR mice (BioLASCO Taiwan Co., Ltd.) were rendered neutropenic via IP injection of cyclophosphamide four days before infection (150 mg/kg) and again one day before infection (100 mg/kg). Animals were anaesthetised with isoflurane (3–5%), then inoculated intramuscularly with S. aureus ATCC 29213 (~1 × 10^5 CFU/mouse). […] Animals were sacrificed via CO2 asphyxiation at either 2 h (baseline), 26 and/or 50 h post-infection. Thigh tissues were harvested and homogenised in 3 mL sterile PBS (pH 7.4). Bacterial burdens were determined by performing 10-fold serial dilutions and plating on nutrient agar plates.

## Cc1c(CN(C)C(=O)/C=C/c2cnc3c(c2)N[C@H](C)[C@H](O)C(=O)N3)oc2ccccc12 [Debio 1453]
[1]; AR Bank0179-15, 20 µg/mL Debio 1453, 24h
  Mean Diff. 0h vs. treatment, log10 CFU: -1.082
[1]; AR Bank0179-15, 20 µg/mL Debio 1453, 48h
  Mean Diff. 0h vs. treatment, log10 CFU: -1.16
[1]; AR Bank0179-15, 40 µg/mL Debio 1453, 24h
  Mean Diff. 0h vs. treatment, log10 CFU: -0.242
[1]; AR Bank0179-15, 40 µg/mL Debio 1453, 48h
  Mean Diff. 0h vs. treatment, log10 CFU: 1.58
[1]; AR Bank0179-15, 60 µg/mL Debio 1453, 24h
  Mean Diff. 0h vs. treatment, log10 CFU: 1.644
[1]; AR Bank0179-15, 60 µg/mL Debio 1453, 48h
  Mean Diff. 0h vs. treatment, log10 CFU: 2.864
[1]; AR Bank0179-15, 80 µg/mL Debio 1453, 24h
  Mean Diff. 0h vs. treatment, log10 CFU: 1.958
[1]; AR Bank0179-15, 80 µg/mL Debio 1453, 48h
  Mean Diff. 0h vs. treatment, log10 CFU: 2.964
[1]; AR Bank0179-15, 24h
  Mean Diff. 0h vs. treatment, log10 CFU: 3.186
[1]; AR Bank0179-15, 48h
  Mean Diff. 0h vs. treatment, log10 CFU: 3.186
[1]; AR Bank0181-17, 40 µg/mL Debio 1453, 24h
  Mean Diff. 0h vs. treatment, log10 CFU: -1.694
[1]; AR Bank0181-17, 40 µg/mL Debio 1453, 48h
  Mean Diff. 0h vs. treatment, log10 CFU: -0.796
[1]; AR Bank0181-17, 60 µg/mL Debio 1453, 24h
  Mean Diff. 0h vs. treatment, log10 CFU: -1.094
[1]; AR Bank0181-17, 60 µg/mL Debio 1453, 48h
  Mean Diff. 0h vs. treatment, log10 CFU: -0.998
[1]; AR Bank0181-17, 80 µg/mL Debio 1453, 24h
  Mean Diff. 0h vs. treatment, log10 CFU: -0.986
[1]; AR Bank0181-17, 80 µg/mL Debio 1453, 48h
  Mean Diff. 0h vs. treatment, log10 CFU: -0.852
[1]; AR Bank0181-17, 320 µg/mL Debio 1453, 24h
  Mean Diff. 0h vs. treatment, log10 CFU: 3.42
[1]; AR Bank0181-17, 320 µg/mL Debio 1453, 48h
  Mean Diff. 0h vs. treatment, log10 CFU: 3.56
[1]; AR Bank0181-17, 24h
  Mean Diff. 0h vs. treatment, log10 CFU: 0.842
[1]; AR Bank0181-17, 48h
  Mean Diff. 0h vs. treatment, log10 CFU: 1.134
[1]; ATCC 700825, 20 µg/mL Debio 1453, 24h
  Mean Diff. 0h vs. treatment, log10 CFU: -0.874
[1]; ATCC 700825, 20 µg/mL Debio 1453, 48h
  Mean Diff. 0h vs. treatment, log10 CFU: -1.386
[1]; ATCC 700825, 40 µg/mL Debio 1453, 24h
  Mean Diff. 0h vs. treatment, log10 CFU: -0.322
[1]; ATCC 700825, 40 µg/mL Debio 1453, 48h
  Mean Diff. 0h vs. treatment, log10 CFU: -0.946
[1]; ATCC 700825, 60 µg/mL Debio 1453, 24h
  Mean Diff. 0h vs. treatment, log10 CFU: 1.296
[1]; ATCC 700825, 60 µg/mL Debio 1453, 48h
  Mean Diff. 0h vs. treatment, log10 CFU: 2.468
[1]; ATCC 700825, 80 µg/mL Debio 1453, 24h
  Mean Diff. 0h vs. treatment, log10 CFU: 2.796
[1]; ATCC 700825, 80 µg/mL Debio 1453, 48h
  Mean Diff. 0h vs. treatment, log10 CFU: 3.082
[1]; ATCC 700825, 24h
  Mean Diff. 0h vs. treatment, log10 CFU: 2.942
[1]; ATCC 700825, 48h
  Mean Diff. 0h vs. treatment, log10 CFU: 3.082
[1]; WHO X-07, 40 µg/mL Debio 1453, 24h
  Mean Diff. 0h vs. treatment, log10 CFU: -1.944
[1]; WHO X-07, 40 µg/mL Debio 1453, 48h
  Mean Diff. 0h vs. treatment, log10 CFU: -2.102
[1]; WHO X-07, 60 µg/mL Debio 1453, 24h
  Mean Diff. 0h vs. treatment, log10 CFU: -1.81
[1]; WHO X-07, 60 µg/mL Debio 1453, 48h
  Mean Diff. 0h vs. treatment, log10 CFU: -1.666
[1]; WHO X-07, 80 µg/mL Debio 1453, 24h
  Mean Diff. 0h vs. treatment, log10 CFU: -1.492
[1]; WHO X-07, 80 µg/mL Debio 1453, 48h
  Mean Diff. 0h vs. treatment, log10 CFU: -1.246
[1]; WHO X-07, 320 µg/mL Debio 1453, 24h
  Mean Diff. 0h vs. treatment, log10 CFU: 3.01
[1]; WHO X-07, 320 µg/mL Debio 1453, 48h
  Mean Diff. 0h vs. treatment, log10 CFU: 3.322
[1]; WHO X-07, 24h
  Mean Diff. 0h vs. treatment, log10 CFU: 2.532
[1]; WHO X-07, 48h
  Mean Diff. 0h vs. treatment, log10 CFU: 3.114
[1]; each of four strains, dosed as Debio 1453 P, limit of detection by 48 h for at least one dose level
  reduction compared to the start of treatment (0 h): ~ 3 log10CFU/mL
[2]; 24 h
  reduction in thighs: > 1 log10CFU/mL
[2]; 48 h
  reduction in thighs: > 2 log10CFU
[2]; 20 µg/mL Debio 1453, 24h
  Mean Diff. 0h vs. treatment, log10 CFU: -1.552
[2]; 20 µg/mL Debio 1453, 48h
  Mean Diff. 0h vs. treatment, log10 CFU: -2.396
[2]; 40 µg/mL Debio 1453, 24h
  Mean Diff. 0h vs. treatment, log10 CFU: -0.054
[2]; 40 µg/mL Debio 1453, 48h
  Mean Diff. 0h vs. treatment, log10 CFU: -1.464
[2]; 60 µg/mL Debio 1453, 24h
  Mean Diff. 0h vs. treatment, log10 CFU: 1.22
[2]; 60 µg/mL Debio 1453, 48h
  Mean Diff. 0h vs. treatment, log10 CFU: 1.476
[2]; 80 µg/mL Debio 1453, 24h
  Mean Diff. 0h vs. treatment, log10 CFU: 1.132
[2]; 80 µg/mL Debio 1453, 48h
  Mean Diff. 0h vs. treatment, log10 CFU: 2.658
[2]; 160 µg/mL Debio 1453, 24h
  Mean Diff. 0h vs. treatment, log10 CFU: 1.558
[2]; 160 µg/mL Debio 1453, 48h
  Mean Diff. 0h vs. treatment, log10 CFU: 2.682
